Measurements as given in patent US9416115B2, “Fused heterocyclic compounds as ion channel modulators” (Gilead Sciences, Inc., priority 2013, dated 2016).

Assays:
hNav1.3 (SCN3A) = target: T1, hNav1.3 (SCN3A) (Homo sapiens, UniProt Q9NY46); experiment: Voltage-dependent inhibition of the Nav1.3 sodium channel; format: cell-based; conditions: voltage-dependent block of peak current, read-out: Nav 1.3-VDB 1 uM
T1 construct: expressed in transfected cells
Description: HEK-293 cells stably expressing wild-type (WT) hNav1.3 (SCN3A NCBI # NP 001075, SCN1B NCBI # NM 001037.4, SCN2B NCBI # NM 004588.2) were used to record INa. Cells are maintained with standard tissue culture procedures and stable channel expression is maintained with 800 ug/mL G418 and 3 ug/mL Puromycin in the culture medium. Unless otherwise noted, all reagents are purchased from Sigma-Aldrich (St Louis, Mo., U.S.A.).
Assays measuring Voltage-Dependent Block (VDB) of Nav1.3 are performed on an automated electrophysiology platform, QPatch 16X or QPatch HT (Sophion Bioscience, Copenhagen, Denmark), using the whole cell patch clamp technique to measure currents through the cell membrane. Series resistance compensation is set to 100% and series resistance and whole-cell compensation are performed automatically. Currents stored in the Sophion Bioscience Oracle database (Sophion Bioscience, Copenhagen, Denmark). Analysis is performed using QPatch Assay software and data are compiled in Excel 2010 (Microsoft, Seattle, Wash., U.S.A.).
The internal (pipette) solution consists of (in mM) 105 CsF, 10 NaF, 20 CsCl, 2 EGTA, 10 HEPES, 10 Dextrose with a pH of 7.35 and osmolarity of 300 mOsmol/kg. The external (bath) solution contains in (mM): 80 NaCl, 60 Choline-Cl, 4 KCl, 1.8 CaCl2, 1 MgCl2, 10 dextrose, 10 HEPES, with a pH of 7.35 and osmolarity of 310 mOsmol/kg. Experiments are carried out at 23-25° C.
Compound stocks are routinely made by the Gilead Sample Bank in vials to 10 mM in dimethyl sulfoxide (DMSO). In some cases, when compounds are not soluble in DMSO, they are made in 100% ethanol. Stocks are sonicated as necessary. Compounds are diluted in extracellular solution using a MicroLab Nimbus (Hamilton Robotics, Reno, Nev.) to 1 μM in glass vials and transferred to glass well plates before robotic addition to the cells.
Cells are allowed to stabilize for 10 min after establishment of the whole-cell configuration before current is measured. The test compound is applied 3 times at 120 second intervals to allow for equilibration. Currents were leak subtracted using a P/4 procedure, low-pass Bessel filtered at 5 kHz and digitized at 25 kHz. Results are presented as mean percentage inhibition.
Voltage-dependent block of Nav1.3 peak current was measured during a voltage step to 0 mV (20 ms) following a voltage step pre-conditioning steps (−55 mV for 10 sec followed by −120 mV for 10 ms). The holding potential was −120 mV and this voltage protocol induces half maximal inactivation of Nav1.3. The voltage protocol for VDB was performed every 45 seconds in the absence and presence of compound and percentage inhibition was calculated with respect to the compound free condition.

[1] = Plasma concentration in the rabbit ischemia study; format: in vivo, New Zealand rabbits; conditions: iv infusion targeted to 1 uM plasma
Description: (§1) Rabbits were anesthetized with ketamine (35 mg/kg) and xylazine (5 mg/kg) intramuscular injection (im). A tracheotomy was performed and the trachea was intubated with an endotracheal tube. The animal was ventilated with room air supplemented with oxygen using a pressure control animal ventilator (Kent Scientific Corp., Torrington, Conn.) at a respiratory rate of 40 strokes/min and peak inspiration pressure of 10 mmH2O, which was adjusted to keep blood gases and pH within the physiological range (iSTAT clinic analyzer, Heska Corp.; Waukesha, Wis.). The left femoral artery was cannulated for the measurement of blood pressure (BP). Blood samples were also withdrawn from femoral artery. The right external jugular vein was cannulated for drug/vehicle administration. Needle electrodes were inserted subcutaneously into the limbs for recording of the surface electrocardiogram (ECG).
(§2) Reference electrodes were placed in the open incision of the neck. The body temperature of the animal was monitored via a rectal thermometer and maintained at 37-40° C. by adjusting the surface temperature of the surgical table. Regional ischemia (15 min) was induced by ligating the LAD followed by 15 min of reperfusion caused by releasing the ligation. The heart was excised at the end of the experiment and the LAD was re-ligated. The ischemic area was visualized by perfusing the heart with 1% Evans blue in saline and calculated as a percentage of total ventricular weight. Rabbits with ischemic area less than 10% or larger than 25% were excluded from the analysis. Animals were randomly assigned to vehicle and test compound groups. Test compounds were dissolved in 15% NMP, 10% Solutol and 75% de-ionized water (dH2O). Test compounds were given as an iv infusion at a rate targeted to reach plasma concentrations of 1 μM. After 30 min of compound administration the heart was subjected to 15 min of ischemia followed by 15 min of reperfusion.

[2] = tested on: Ischemia-Induced ST Segment Elevation in Anesthetized Rabbits; experiment: Ischemia-induced ST segment elevation in anesthetized rabbits; format: in vivo, New Zealand rabbits; conditions: iv infusion; 15 min LAD ischemia after 30 min of compound administration
Description: This study was undertaken to determine the anti-ischemic effects of compounds of the present disclosure in an in vivo rabbit model.
Female New Zealand rabbits (3.0-4.0 kg) were purchased from Western Oregon Rabbitry. Animals were housed on a 12-h light and dark cycle and received standard laboratory chow and water. All experiments were performed in accordance with the Guide for the Care and Use of Laboratory Animals published by The National Research Council and with the experimental protocol approved by the Institutional Animal Care Committee of Gilead Sciences, Inc.
as §1
The heart was exposed via an incision in the 4th intercostal space (4th and/or 5th ribs were cut for a clear surgical vision). The chest was opened and a pericardial cradle was formed using 4 retractors. A coronary artery occluder, comprised of a snare made of 5 cm PE-10 tubing with a 6-0 Prolene polypropylene suture in it, was placed loosely around the left anterior descending artery (LAD) at its origin. Two unipolar electrodes, made with teflon coated silver wire attached to a small patch of filter paper, were attached on the surface of the ischemic and normal regions of the left ventricle to record epicardial electrocardiogram.
as §2

T1 sequence (Q9NY46 1-1951 isoform Q9NY46-2): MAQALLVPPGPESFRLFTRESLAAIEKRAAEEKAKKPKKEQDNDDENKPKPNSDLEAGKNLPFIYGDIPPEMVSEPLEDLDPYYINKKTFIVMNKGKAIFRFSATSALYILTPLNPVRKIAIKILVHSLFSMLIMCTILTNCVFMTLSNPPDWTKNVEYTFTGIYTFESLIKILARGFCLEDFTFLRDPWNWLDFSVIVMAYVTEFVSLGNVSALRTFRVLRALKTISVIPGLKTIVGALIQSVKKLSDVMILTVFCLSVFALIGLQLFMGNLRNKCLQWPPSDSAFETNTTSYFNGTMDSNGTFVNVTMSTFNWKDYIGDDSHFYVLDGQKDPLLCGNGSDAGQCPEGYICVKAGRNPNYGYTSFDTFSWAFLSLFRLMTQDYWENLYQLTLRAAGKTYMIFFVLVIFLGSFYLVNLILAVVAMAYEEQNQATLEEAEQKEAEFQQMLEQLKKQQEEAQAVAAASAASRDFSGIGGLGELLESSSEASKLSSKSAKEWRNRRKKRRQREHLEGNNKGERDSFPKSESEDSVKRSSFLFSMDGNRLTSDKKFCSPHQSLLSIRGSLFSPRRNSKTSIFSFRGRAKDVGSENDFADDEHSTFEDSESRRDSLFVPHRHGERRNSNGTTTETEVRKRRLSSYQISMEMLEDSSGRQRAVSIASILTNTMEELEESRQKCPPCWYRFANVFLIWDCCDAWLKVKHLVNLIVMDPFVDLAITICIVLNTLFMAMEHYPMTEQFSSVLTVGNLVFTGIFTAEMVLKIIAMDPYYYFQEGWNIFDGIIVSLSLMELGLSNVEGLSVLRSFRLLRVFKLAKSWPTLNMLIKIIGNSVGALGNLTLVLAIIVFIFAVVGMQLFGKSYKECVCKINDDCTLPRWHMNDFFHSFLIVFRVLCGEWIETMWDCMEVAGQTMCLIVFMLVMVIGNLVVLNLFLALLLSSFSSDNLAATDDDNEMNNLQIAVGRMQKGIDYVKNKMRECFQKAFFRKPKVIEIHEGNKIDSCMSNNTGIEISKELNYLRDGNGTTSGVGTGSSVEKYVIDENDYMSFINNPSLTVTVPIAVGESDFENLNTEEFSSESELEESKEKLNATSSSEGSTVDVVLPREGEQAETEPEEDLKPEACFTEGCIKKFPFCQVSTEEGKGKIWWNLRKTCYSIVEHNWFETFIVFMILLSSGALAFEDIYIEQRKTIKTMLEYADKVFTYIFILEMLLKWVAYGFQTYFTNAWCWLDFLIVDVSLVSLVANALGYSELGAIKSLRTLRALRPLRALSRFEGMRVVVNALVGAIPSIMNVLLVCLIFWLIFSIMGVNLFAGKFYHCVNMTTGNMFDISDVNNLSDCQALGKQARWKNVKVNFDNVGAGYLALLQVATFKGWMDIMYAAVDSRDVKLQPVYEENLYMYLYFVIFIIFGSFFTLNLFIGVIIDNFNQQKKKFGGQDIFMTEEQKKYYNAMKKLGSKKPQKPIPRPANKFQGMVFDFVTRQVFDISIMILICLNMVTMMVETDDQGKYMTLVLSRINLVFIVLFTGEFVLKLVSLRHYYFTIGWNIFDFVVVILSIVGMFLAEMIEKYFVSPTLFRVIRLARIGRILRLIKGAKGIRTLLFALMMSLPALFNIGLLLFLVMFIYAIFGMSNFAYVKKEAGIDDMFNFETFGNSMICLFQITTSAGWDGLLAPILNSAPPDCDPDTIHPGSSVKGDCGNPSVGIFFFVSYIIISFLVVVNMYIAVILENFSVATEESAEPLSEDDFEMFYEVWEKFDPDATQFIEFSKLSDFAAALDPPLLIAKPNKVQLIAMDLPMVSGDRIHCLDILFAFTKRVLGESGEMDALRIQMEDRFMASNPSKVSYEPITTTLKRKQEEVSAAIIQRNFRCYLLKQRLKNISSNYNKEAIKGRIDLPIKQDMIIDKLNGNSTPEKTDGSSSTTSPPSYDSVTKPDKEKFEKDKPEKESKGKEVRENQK
T1 sequence (Q07699 19-218 partner): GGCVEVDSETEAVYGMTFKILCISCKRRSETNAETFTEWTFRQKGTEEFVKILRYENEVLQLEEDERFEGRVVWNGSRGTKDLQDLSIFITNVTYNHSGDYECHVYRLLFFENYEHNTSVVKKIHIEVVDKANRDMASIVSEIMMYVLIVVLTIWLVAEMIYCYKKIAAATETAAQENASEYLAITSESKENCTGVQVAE
T1 sequence (O60939 30-215 partner): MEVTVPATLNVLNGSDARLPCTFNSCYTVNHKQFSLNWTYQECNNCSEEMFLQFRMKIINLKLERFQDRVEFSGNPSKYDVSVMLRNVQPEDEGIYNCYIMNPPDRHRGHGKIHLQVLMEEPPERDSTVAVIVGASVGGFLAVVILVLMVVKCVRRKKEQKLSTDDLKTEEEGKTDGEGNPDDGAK

Q: For `CC(COc1noc2ccc(-c3ccc(OC(F)(F)F)cc3)cc12)n1cccn1` (stereo not shown) [Example 68, 3-(2-(1H-pyrazol-1-yl)propoxy)-5-(4-(trifluoromethoxy)phenyl)benzo[d]isoxazole], which inhibition at 1 µM (hNav1.3 (SCN3A)) is on record?
A: The inhibition at 1 µM was 27.1%.

Q: What does the source list for `Fc1cc(C(F)(F)F)ccc1-c1ccc2onc(OCc3ncccn3)c2c1` [Example 6, 5-(2-fluoro-4-(trifluoromethyl)phenyl)-3-(pyrimidin-2-ylmethoxy)benzo[d]isoxazole]?
A: Plasma concentration [1]: 800 nM; Rabbit ST Segment (Percent reduction) [2]: 0 Percent reduction; inhibition at 1 µM (hNav1.3 (SCN3A)): < 5%

Q: What does the source list for `FC(F)(F)Oc1ccc(-c2ccc3onc(OCc4nnc(C5CC5)o4)c3c2)cc1` [Example 96, 3-((5-cyclopropyl-1,3,4-oxadiazol-2-yl)methoxy)-5-(4-(trifluoromethoxy)phenyl)benzo[d]isoxazole]?
A: Plasma concentration [1]: 1000 nM; Rabbit ST Segment (Percent reduction) [2]: 46 Percent reduction

Q: Which Plasma concentration [1] does the source give for `FC(F)(F)Oc1ccc(-c2ccc3onc(OCc4ncccn4)c3c2)cc1` [Example 1, 3-(pyrimidin-2-ylmethoxy)-5-(4-(trifluoromethoxy)phenyl)benzo[d]isoxazole] here?
A: Its Plasma concentration is 1000 nM.

Q: What about the “Rabbit ST Segment (Percent reduction)” value [2] of the same molecule?
A: Its value is 32 Percent reduction.

Q: Which Plasma concentration [1] does the source give for `Cc1ccnc(COc2noc3ccc(-c4ccc(OC(F)(F)F)cc4)cc23)n1` [Example 5, 3-((4-methylpyrimidin-2-yl)methoxy)-5-(4-(trifluoromethoxy)phenyl)benzo[d]isoxazole] here?
A: Its Plasma concentration is 1400 nM.

Q: What about the “Rabbit ST Segment (Percent reduction)” value [2] of the same molecule?
A: The value was 0 Percent reduction.

Q: What about the inhibition at 1 µM (hNav1.3 (SCN3A)) of the same molecule?
A: The inhibition at 1 µM was 13.9%.

Q: For `Cc1cc(-c2ccc3onc(OCc4ncccn4)c3c2)ccc1OC(F)(F)F` [Example 7, 5-(3-methyl-4-(trifluoromethoxy)phenyl)-3-(pyrimidin-2-ylmethoxy)benzo[d]isoxazole], which inhibition at 1 µM (hNav1.3 (SCN3A)) is on record?
A: Its inhibition at 1 µM is less than 5%.

Q: For `Cc1nnc(COc2noc3ccc(-c4ccc(OC(F)(F)F)cc4)cc23)o1` [Example 99, 3-((5-methyl-1,3,4-oxadiazol-2-yl)methoxy)-5-(4-(trifluoromethoxy)phenyl)benzo[d]isoxazole], which inhibition at 1 µM (hNav1.3 (SCN3A)) is on record?
A: The inhibition at 1 µM was 41.4%.

Q: With `O=C1CCCN1CCOc1noc2ccc(-c3ccc(OC(F)(F)F)cc3)cc12` [Example 59, 1-(2-((5-(4-(trifluoromethoxy)phenyl)benzo[d]isoxazol-3-yl)oxy)ethyl)pyrrolidin-2-one] as the molecule, how does the Plasma concentration [1] read?
A: Its Plasma concentration is 1300 nM.

Q: And the “Rabbit ST Segment (Percent reduction)” value [2]?
A: The value was 23 Percent reduction.

Q: What about the inhibition at 1 µM (hNav1.3 (SCN3A)) of the same molecule?
A: The inhibition at 1 µM was 14.5%.

Q: Which inhibition at 1 µM (hNav1.3 (SCN3A)) does the source give for `Fc1cc(-c2ccc3onc(OCc4ncccn4)c3c2)ccc1Cl` [Example 8, 5-(4-chloro-3-fluorophenyl)-3-(pyrimidin-2-ylmethoxy)benzo[d]isoxazole] here?
A: Its inhibition at 1 µM is 6.4%.

Q: For `COc1cc(OC(F)(F)F)ccc1-c1ccc2onc(OCc3ncccn3)c2c1` [Example 4, 5-(2-methoxy-4-(trifluoromethoxy)phenyl)-3-(pyrimidin-2-ylmethoxy)benzo[d]isoxazole], which inhibition at 1 µM (hNav1.3 (SCN3A)) is on record?
A: Its inhibition at 1 µM is 12.2%.

Q: Which Plasma concentration [1] does the source give for `FC(F)(F)Oc1ccc(-c2ccc3onc(OCCn4cncn4)c3c2)cc1` [Example 58, 3-(2-(1H-1,2,4-triazol-1-yl)ethoxy)-5-(4-(trifluoromethoxy)phenyl)benzo[d]isoxazole] here?
A: Its Plasma concentration is 1300 nM.

Q: And the “Rabbit ST Segment (Percent reduction)” value [2]?
A: The value was 14 Percent reduction.

Q: Which inhibition at 1 µM (hNav1.3 (SCN3A)) does the source give for `COc1cc(-c2ccc(OC(F)(F)F)cc2)cc2c(OCc3ncccn3)noc12` [Example 22, 7-methoxy-3-(pyrimidin-2-ylmethoxy)-5-(4-(trifluoromethoxy)phenyl)benzo[d]isoxazole] here?
A: The inhibition at 1 µM was 17.3%.

Q: With `FC(F)(F)Oc1cccc(-c2ccc3onc(OCc4ncccn4)c3c2)c1` [Example 10, 3-(pyrimidin-2-ylmethoxy)-5-(3-(trifluoromethoxy)phenyl)benzo[d]isoxazole] as the molecule, how does the inhibition at 1 µM (hNav1.3 (SCN3A)) read?
A: The inhibition at 1 µM was 8.5%.
